# Target: T1, IRAK4 (Homo sapiens, UniProt Q9NWZ3)
# T1 construct: endogenous in cells; host or cells: OCI-LY10
# T1 sequence (Q9NWZ3 1-460): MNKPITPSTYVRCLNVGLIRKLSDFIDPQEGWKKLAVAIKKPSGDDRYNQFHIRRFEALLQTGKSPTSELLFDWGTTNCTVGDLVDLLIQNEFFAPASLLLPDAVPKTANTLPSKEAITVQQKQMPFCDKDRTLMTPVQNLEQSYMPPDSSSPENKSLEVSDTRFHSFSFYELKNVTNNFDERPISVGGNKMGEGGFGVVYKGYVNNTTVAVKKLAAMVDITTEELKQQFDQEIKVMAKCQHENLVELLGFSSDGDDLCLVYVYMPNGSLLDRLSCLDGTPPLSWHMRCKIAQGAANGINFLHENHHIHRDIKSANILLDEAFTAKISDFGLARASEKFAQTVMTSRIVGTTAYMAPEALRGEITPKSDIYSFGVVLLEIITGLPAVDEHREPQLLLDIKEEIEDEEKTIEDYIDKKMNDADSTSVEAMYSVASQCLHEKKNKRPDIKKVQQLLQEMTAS
# Assay: IRAK4 MSD Degradation in OCI-LY10
# Type: cell-based
# Settings: OCI-LY10 cells, 4 hrs incubation, read-out: IRAK4 degradation in OCI-LY10 at 4 hrs: DC50
# Method: Degradation of IRAK4 in OCI-LY10 was quantitatively measured using Meso Scale Discovery technology. […] Compounds were then added to the assay plates with a final top concentration of 1 to 10 μM in a 1:3 dilution series with total of 8 doses. The assay plates were then incubated for 4 to 24 hours at 37° C. under 5% C02. […] To prepare MSD assay plates (Meso Scale Discovery Catalog number L15XA-3), the plates were coated with […] capture antibody (mouse Anti-IRAK4 antibody [2H9], ab119942) in PBS, at 40 μL/well. […] Cell lysates were then added to MSD assay plates and the plates were incubated at room temperature for 1 hour. The plates were then washed 3 times with 150 μL/well TBST buffer and 25 μL/well primary detection antibody (rabbit Anti-IRAK4 antibody [Y279], from Abcam. Catalog number ab32511, 1 μg/mL). The assay plates were then incubated at room temperature for 1 hour, washed 3 times with 150 μL/well TBST buffer and 25 μL/well secondary detection antibody, SULFO-TAG anti-rabbit antibody were added (anti rabbit antibody from Meso Scale Discovery, Catalog number R32AB-1, 1 μg/mL). The assay plates were then incubated at room temperature for 1 hour, washed 3 times with 150 μL/well TBST buffer, and 150 μL/well MSD reading buffer (Meso Scale Discovery catalog number R92TC-2) was added. The plates were then analyzed by a MSD reader (Meso Scale Discovery, Model Quick Plex SQ 120). The data was then analyzed by software Prism 7.0 from GraphPad and the dose-depended IRAK4 degradation were fit using a three-parameter logistic equation to calculate DC50.
# The letter codes for IRAK4 […] include: A (<0.05 μM); B (0.05-0.1 μM); C (0.1-0.5 μM); D (0.5-1.0 μM); and E (>1.0 μM).
row,SMILES,DC50
1,Cn1c(=O)n(C2CCC(=O)NC2=O)c2cccc(N3C[C@H]4C[C@@H]3CN4C[C@H]3CC[C@H](n4cc5cc(NC(=O)c6cccc(C(F)(F)F)n6)c(C(C)(C)O)cc5n4)CC3)c21 (stereo partly shown) [I-282],< 50 nM
2,CN(C[C@H]1CC[C@H](n2cc3cc(NC(=O)c4cccc(C(F)(F)F)n4)c(C(C)(C)O)cc3n2)CC1)C1CCN(c2cccc3c2n(C)c(=O)n3C2CCC(=O)NC2=O)CC1 (stereo partly shown) [I-80],< 50 nM
3,"Cn1c(=O)n(C2CCC(=O)NC2=O)c2cccc([C@H]3CC[C@@H](N(C)C[C@H]4CC[C@H](n5cc6cc(NC(=O)c7cccc(C(F)(F)F)n7)c(C(C)(C)O)cc6n5)CC4)CC3)c21 (single isomer, unassigned) [I-174, N-[2-[4-[[[4-[1-(2,6-dioxo-3-piperidyl)-3-methyl-2-oxo-benzimidazol-4-yl]cyclohexyl]-methyl-amino]methyl]cyclohexyl]-6-(1-hydroxy-1-methyl-ethyl)indazol-5-yl]-6-(trifluoromethyl)pyridine-2-carboxamide]",< 50 nM
4,CN(CCCO[C@H]1C[C@H](Cc2cccc3c2n(C)c(=O)n3C2CCC(=O)NC2=O)C1)C[C@H]1CC[C@H](n2cc3cc(NC(=O)c4cccc(C(F)(F)F)n4)c(C(C)(C)O)cc3n2)CC1 (stereo partly shown) [I-85],< 50 nM
5,COc1cc2nn([C@H]3CC[C@H](CN4CCN(CCc5cccc6c5n(C)c(=O)n6C5CCC(=O)NC5=O)CC4)CC3)cc2cc1NC(=O)c1cccc(C(F)(F)F)n1 (stereo partly shown) [I-96],< 50 nM
6,Cn1c(=O)n(C2CCC(=O)NC2=O)c2cccc(CCC3CC4(CCN(C[C@H]5CC[C@H](n6cc7cc(NC(=O)c8cnn9cccnc89)c(C(C)(C)O)cc7n6)CC5)CC4)C3)c21 (stereo partly shown) [I-105],< 50 nM
7,CN(C[C@H]1CC[C@H](n2cc3cc(NC(=O)c4cccc(C(F)(F)F)n4)c(N4CCOCC4)cc3n2)CC1)C1CCN(c2cccc3c2n(C)c(=O)n3C2CCC(=O)NC2=O)CC1 (stereo partly shown) [I-178],< 50 nM

# Other lines, results leading:
row,DC50,SMILES
1,< 50 nM,Cn1c(=O)n(C2CCC(=O)NC2=O)c2cccc(CCC3CC4(CCN(C[C@H]5CC[C@H](n6cc7cc(NC(=O)c8cnn9cccnc89)c(C(F)F)cc7n6)CC5)CC4)C3)c21 (stereo partly shown) [I-299]
2,500 to 1000 nM,"CN(C[C@H]1CC[C@H](n2cc3cc(NC(=O)c4cccc(C(F)(F)F)n4)c(C(C)(C)O)cc3n2)CC1)c1cccc2c1n(C)c(=O)n2C1CCC(=O)NC1=O (stereo partly shown) [I-310, N-[2-[4-[[[1-(2,6-dioxo-3-piperidyl)-3-methyl-2-oxo-benzimidazol-4-yl]-methyl-amino]methyl]cyclohexyl]-6-(1-hydroxy-1-methyl-ethyl)indazol-5-yl]-6-(trifluoromethyl)pyridine-2-carboxamide]"
3,< 50 nM,Cn1c(=O)n(C2CCC(=O)NC2=O)c2cccc(NCC3CC4(CCN(C[C@H]5CC[C@H](n6cc7cc(NC(=O)c8cccc(C(F)(F)F)n8)c(C(C)(C)O)cc7n6)CC5)CC4)C3)c21 (stereo partly shown) [I-166]
4,< 50 nM,CN(C[C@H]1CC[C@H](n2cc3cc(NC(=O)c4cccc(C(F)(F)F)n4)c(C(C)(C)O)cc3n2)CC1)C1CCN(c2ccc3c(c2)n(C)c(=O)n3C2CCC(=O)NC2=O)CC1 (stereo partly shown) [I-75]
5,< 50 nM,Cn1c(=O)n(C2CCC(=O)NC2=O)c2cccc(C[C@H]3C[C@H](OC4CCN(C[C@H]5CC[C@H](n6cc7cc(NC(=O)c8cccc(C(F)(F)F)n8)c(C(C)(C)O)cc7n6)CC5)CC4)C3)c21 (stereo partly shown) [I-203]
6,50 to 100 nM,Cn1c(=O)n(C2CCC(=O)NC2=O)c2ccc(N3CCN(C[C@H]4CC[C@H](n5cc6cc(NC(=O)c7cccc(C(C)(C)F)n7)c(C(F)F)cc6n5)CC4)CC3)cc21 (stereo partly shown) [I-157]
7,50 to 100 nM,Cn1c(=O)n(C2CCC(=O)NC2=O)c2cccc(CN3CC4(CN(Cc5ccc(-n6cc7cc(NC(=O)c8cccc(C(F)(F)F)n8)c(C(C)(C)O)cc7n6)cc5)C4)C3)c21 (stereo not shown) [I-49]
8,50 to 100 nM,Cn1c(=O)n(C2CCC(=O)NC2=O)c2cccc(C3CN(C[C@H]4CC[C@H](n5cc6cc(NC(=O)c7cccc(C(F)(F)F)n7)c(C(F)F)cc6n5)CC4)C3)c21 (stereo partly shown) [I-104]
9,< 50 nM,COc1cc2nn([C@H]3CC[C@H](CN4CCC(c5ccc6c(c5)n(C)c(=O)n6C5CCC(=O)NC5=O)CC4)CC3)cc2cc1NC(=O)c1cccc(C(C)(C)F)n1 (stereo partly shown) [I-100]
10,< 50 nM,COc1cc2nn([C@H]3CC[C@H](CN4CCC(c5cccc6c5n(C)c(=O)n6C5CCC(=O)NC5=O)CC4)CC3)cc2cc1NC(=O)c1cnccn1 (stereo partly shown) [I-327]
11,< 50 nM,CN(C[C@H]1CC[C@H](n2cc3cc(NC(=O)c4cccc(C5CC5)n4)c(C(C)(C)O)cc3n2)CC1)C1CCN(Cc2cccc3c2n(C)c(=O)n3C2CCC(=O)NC2=O)CC1 (stereo partly shown) [I-322]
12,< 50 nM,Cn1c(=O)n(C2CCC(=O)NC2=O)c2ccc(C3CCN(C[C@H]4CC[C@H](n5cc6cc(NC(=O)c7cccc(C(C)(C)F)n7)c(C(F)F)cc6n5)CC4)CC3)cc21 (stereo partly shown) [I-101]
13,50 to 100 nM,COc1cc2nn([C@H]3CC[C@H](C(=O)N(C)C4CCN(Cc5cccc6c5n(C)c(=O)n6C5CCC(=O)NC5=O)CC4)CC3)cc2cc1NC(=O)c1cccc(C(F)(F)F)n1 (stereo partly shown) [I-293]

# Same assay, conditions: OCI-LY10 cells, 24 hrs incubation, read-out: IRAK4 degradation in OCI-LY10 at 24 hrs: DC50
row,SMILES,DC50
1,CC(C)(O)c1cc2nn([C@H]3CC[C@H](CN4CCC5(CC4)CC(Nc4cccc6c4C(=O)N(C4CCC(=O)NC4=O)C6=O)C5)CC3)cc2cc1NC(=O)c1cccc(S(F)(F)(F)(F)F)n1 (stereo partly shown) [I-291],< 50 nM
2,"CN[C@@H](C)C(=O)N[C@H](C(=O)N1Cc2cc(OCCCC3CC4(CCN(C[C@H]5CC[C@H](n6cc7cc(NC(=O)c8cccc(C(F)(F)F)n8)c(OC)cc7n6)CC5)CC4)C3)ccc2C[C@H]1C(=O)N[C@@H]1CCCc2ccccc21)C(C)(C)C [I-186, (3S)-2-[(2S)-3,3-Dimethyl-2-[[(2S)-2-(methylamino)propanoyl]amino]butanoyl]-7-[3-[7-[[4-[6-methoxy-5-[[6-(trifluoromethyl)pyridine-2-carbonyl]amino]indazol-2-yl]cyclohexyl]methyl]-7-azaspiro[3.5]nonan-2-yl]propoxy]-N-[(1R)-tetralin-1-yl]-3,4-dihydro-1H-isoquinoline-3-carboxamide]",500 to 1000 nM
3,CN(CCCO[C@H]1C[C@H](Nc2cccc3c2C(=O)N(C2CCC(=O)NC2=O)C3=O)C1)C[C@H]1CC[C@H](n2cc3cc(N(C)C(=O)c4cccc(C(F)(F)F)n4)c(C(C)(C)O)cc3n2)CC1 (stereo partly shown) [I-225],500 to 1000 nM
4,CN(C[C@H]1CC[C@H](n2cc3cc(NC(=O)c4cccc(C(F)(F)F)n4)c(C(C)(C)O)cc3n2)CC1)C1CCC2(CC1)CC(CNc1cccc3c1C(=O)N(C1CCC(=O)NC1=O)C3=O)C2 (stereo partly shown) [I-32],< 50 nM
5,COc1cc2nn([C@H]3CC[C@H](CN(C)C4CCC5(CC4)CC(CNc4cccc6c4C(=O)N(C4CCC(=O)NC4=O)C6=O)C5)CC3)cc2cc1NC(=O)c1cccc(-c2cnn(C)c2)n1 (stereo partly shown) [I-219],50 to 100 nM
6,CC(C)(C)c1cccc(C(=O)Nc2cc3cn([C@H]4CC[C@H](CN5CCC6(CC5)CC(Nc5cccc7c5C(=O)N(C5CCC(=O)NC5=O)C7=O)C6)CC4)nc3cc2C(C)(C)O)n1 (stereo partly shown) [I-249],50 to 100 nM

# Now from value to compound:
row,DC50,SMILES
1,< 50 nM,CN(C[C@H]1CC[C@H](n2cc3cc(NC(=O)c4cccc(C(C)(C)F)n4)c(C(C)(C)O)cc3n2)CC1)[C@H]1CC[C@H](Nc2cccc3c2C(=O)N(C2CCC(=O)NC2=O)C3=O)CC1 (stereo partly shown) [I-306]
2,50 to 100 nM,COc1cc2nn([C@H]3CC[C@H](CN(C)[C@H]4CC[C@H](CNc5cccc6c5C(=O)N(C5CCC(=O)NC5=O)C6=O)CC4)CC3)cc2cc1NC(=O)c1cccc(C)n1 (stereo partly shown) [I-268]
3,50 to 100 nM,COc1cc2nn([C@H]3CC[C@H](CN(C)[C@H]4CC[C@H](CNc5cccc6c5C(=O)N(C5CCC(=O)NC5=O)C6=O)CC4)CC3)cc2cc1NC(=O)c1cccc(C(F)(F)F)n1 (stereo partly shown) [I-210]
4,50 to 100 nM,COc1c(NC(=O)c2cccc(C(C)(C)F)n2)cc2cn([C@H]3CC[C@H](CN4CC5(CC(CCNc6cccc7c6C(=O)N(C6CCC(=O)NC6=O)C7=O)C5)C4)CC3)nc2c1C (stereo partly shown) [I-315]
5,50 to 100 nM,CN(CCCO[C@H]1C[C@H](Nc2cccc3c2C(=O)N(C2CCC(=O)NC2=O)C3=O)C1)C[C@H]1CC[C@H](n2cc3cc(NC(=O)c4cccc(S(F)(F)(F)(F)F)n4)c(C(C)(C)O)cc3n2)CC1 (stereo partly shown) [I-290]

# — patent publication US12545659B2, “IRAK degraders and uses thereof” (Kymera Therapeutics, Inc., priority 2019, dated 2026)
